The values below are quoted from earlier work in patent US20140271772A1, “BIODEGRADABLE SUBCUTANEOUS IMPLANTS AND METHODS OF MAKING” (priority 2013, published 2014).

Data set [1] concerns cats.

Take `Nc1nc2c(ncn2COCCO)c(=O)[nH]1` [acyclovir]: the oral bioavailability is given as 10-30%. Besides, the toxicity to cats result in data set [1] was “toxic to cats”.
